Where two headings read alike, the source gives them in different places.
Experiments:
GST-PPARG-LBD = GST-PPARG-LBD (Homo sapiens (Human), UniProt P37231); assay: Lanthascreen PPARG competitive binding assay (Invitrogen, TR-FRET); conditions: Lanthascreen competitive binding; NA = not active; inc = incomplete curve; read-out: IC50 (nM) Lantha
Outline: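 Values are fold change in 520 nm/490 nm FRET ratio relative to a 2% DMSO no-ligand control, excitation 340 nm. Compound dilutions starting at 10 μM competed against 5 nM Fluormone Pan-PPAR Green for GST-PPARG-LBD bound by 5 nM Tb anti-GST antibody. Incubation 2 h in the dark in assay buffer C, triplicate wells.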

[1] = test system: PPARG (murine PPARg2 or full-length human PPARG, 3xPPRE-luciferase reporter); assay: Cell-based PPRE-luciferase transactivation assay in COS-1 cells; conditions: for EC50: PPRE-luciferase, COS-1 cells, NA = not active, read-out: EC50 (nM) PPRE
Description: Cell-Based Transactivation Assay:
PPRE is a DNA that contains a binding site for PPARG; thus PPRE is a PPAR response element, used herein as a promoter reporter. The binding site is a DR1 response element with the sequence AGGTCA repeated 3 times in tandem and then fused to a construct for luciferase.
Thus, PPRE is the basis of the cell based transactivation assay described below. The plasmid DNA is co-transfected along with a plasmid for PPARG into COS-1 cells. After an overnight incubation, cells are treated with DMSO or compounds.
Confluent COS-1 cells were transfected with 4.5 μg murine PPARg2-pSV Sport or full-length human PPAR9-pSport6, 4.5 μg 3×PPRE-luciferase reporter and 27 μL X-treme Gene 9 transfection reagent in serum-free opti-mem media (Gibco), followed by overnight incubation at 37° C., 5% CO2. Transfected cells were plated in white Perkin Elmer 384-well plates and incubated 4 hours. […] After 18 hour incubation, treated cells were developed with Brite Lite Plus (Perkin Elmer) and read in 384-well Luminescence Perkin Elmer EnVision Multilabel plate reader. Graphs were plotted in triplicate in GraphPad Prism Software as fold change of treated cells over DMSO control cells.

[2] = target: Gal-4-PPAR (human PPAR LBD fused to GAL4 DNA-binding domain) (Homo sapiens (Human), UniProt P37231); assay: GAL4-PPARG LBD / UAS-luciferase transactivation assay in HEK 293T cells; assay type: cell-based; conditions: for activation at 10 µM: HEK-293T, 18 h, read-out: % transactivation at 10 μM (GAL4)
[3] = GAL4 transactivation, HEK 293T cells, NA = not active, read-out: EC50 (nM) GAL4

Gal-4-PPAR (human PPAR LBD fused to GAL4 DNA-binding domain), sequence (P37231 238-503): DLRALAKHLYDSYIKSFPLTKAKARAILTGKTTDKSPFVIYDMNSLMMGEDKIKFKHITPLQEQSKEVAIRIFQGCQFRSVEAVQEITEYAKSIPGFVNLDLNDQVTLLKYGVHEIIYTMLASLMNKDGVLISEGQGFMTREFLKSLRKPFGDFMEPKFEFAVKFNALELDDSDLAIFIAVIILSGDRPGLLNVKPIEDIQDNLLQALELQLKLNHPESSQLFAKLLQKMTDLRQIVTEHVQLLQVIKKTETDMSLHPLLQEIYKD
GST-PPARG-LBD, sequence (P37231 238-503): as above

SMILES | IC50 (GST-PPARG-LBD) | EC50 [1] | PPRE transactivation (% in parentheses) ([1]; rosiglitazone = 100%) | PPRE transactivation (% in parentheses) [1] | EC50 [2, 3] | activation at 10 µM [2] | EC50 [2]
Cc1c(C)n(Cc2ccc(-c3ccccc3C(=O)O)cc2)c2ccc(C(=O)NCc3cccc(C(F)(F)F)c3)cc12 [Example 100, 4′-((2,3-dimethyl-5-(3-(trifluoromethyl)benzylcarbamoyl)-1H-indol-1-yl)methyl)biphenyl-2-carboxylic acid] | 191 nM | 281 nM | (21%) | – | – | – | –
Cc1c(C)n(Cc2ccc(-c3ccccc3C(=O)O)cc2)c2ccc(C(=O)N[C@@H](C)c3ccc(Cl)cc3)cc12 [compound 27, (S)-4′-((5-((1-(4-Chlorophenyl)ethyl)carbamoyl)-2,3-dimethyl-1H-indol-1-yl)methyl)-[1,1′-biphenyl]-2-carboxylic acid] | 53 nM | 33 nM | (6%) | – | – | – | –
Cc1c(C)n(Cc2ccc(-c3ccccc3C(=O)O)cc2)c2ccc(C(=O)NCc3cccc(OC(F)(F)F)c3)cc12 [compound 5, 4′-((2,3-Dimethyl-5-(3-(trifluoromethoxy)benzylcarbamoyl)-1H-indol-1-yl)methyl)biphenyl-2-carboxylic acid] | 157 nM | – | (0%) | – | – | – | –
Cc1c(C)n(Cc2ccc(-c3ccccc3C(=O)O)cc2)c2ccc(C(=O)NCc3ccc(F)c(F)c3)cc12 [Example 77, 4′-((5-(3,4-difluorobenzylcarbamoyl)-2,3-dimethyl-1H-indol-1-yl)methyl)biphenyl-2-carboxylic acid] | – | 95 nM | (20%) | – | – | – | –
CCC(NC(=O)c1ccc2c(c1)c(C)c(C)n2Cc1ccc(-c2ccccc2-c2nnn[nH]2)cc1)c1ccccc1 (centres unmarked) [Example 36, 1-((2′-(1H-Tetrazol-5-yl)-[1,1′-biphenyl]-4-yl)methyl)-2,3-dimethyl-N-(1-phenylpropyl)-1H-indole-5-carboxamide] | 6 nM | 2 nM | (23%) | – | – | – | –
C[C@H](NC(=O)c1ccc2c(ccn2Cc2ccc(-c3ccccc3C(=O)O)cc2)c1)c1ccc(Br)cc1 [Example 130, (S)-4′-((5-((1-(4-Bromophenyl)ethyl)carbamoyl)-1H-indol-1-yl)methyl)-[1,1′-biphenyl]-2-carboxylic acid] | 163 nM | – | (0%) | – | – | – | –
Cc1c(C)n(Cc2ccc(-c3ccccc3C(=O)O)cc2)c2ccc(C(=O)NCc3ccc(F)cc3)cc12 [Example 76, 4′-((5-(4-fluorobenzylcarbamoyl)-2,3-dimethyl-1H-indol-1-yl)methyl)biphenyl-2-carboxylic acid] | 5 nM | 23 nM | (15%) | – | – | – | –
Cc1c(C)n(Cc2ccc(-c3ccccc3C(=O)O)cc2)c2ccc(C(=O)NC(C)CCc3ccccc3)cc12 (centres unmarked) [Example 117, 4′-((2,3-dimethyl-5-(4-phenylbutan-2-ylcarbamoyl)-1H-indol-1-yl)methyl)biphenyl-2-carboxylic acid] | 3 nM | 3 nM | (17%) | – | – | – | –
CCC(NC(=O)c1ccc2c(ccn2Cc2ccccc2-c2ccc(C(=O)O)cc2)c1)c1ccccc1 (centres unmarked) [Example 70, 2′-((5-((1-Phenylpropyl)carbamoyl)-1H-indol-1-yl)methyl)-[1,1′-biphenyl]-4-carboxylic acid] | 10 nM | – | – | (0%) | – | – | –
COc1ccc(CNC(=O)c2ccc3c(c2)c(C)c(C)n3Cc2ccc(-c3ccccc3C(=O)O)cc2)cc1OC [compound 24, 4′-((5-(3,4-Dimethoxybenzylcarbamoyl)-2,3-dimethyl-1H-indol-1-yl)methyl)biphenyl-2-carboxylic acid] | 125 nM | – | (0%) | – | – | – | –
Cc1c(C)n(Cc2ccc(-c3ccccc3C#N)cc2)c2ccc(C(=O)N[C@@H](C)c3ccc(Br)cc3)cc12 [Example 35, (S)—N-(1-(4-Bromophenyl)ethyl)-1-((2′-cyano-[1,1′-biphenyl]-4-yl)methyl)-2,3-dimethyl-1H-indole-5-carboxamide] | 40 nM | 380 nM | (9%) | – | – | – | –
C[C@H](NC(=O)c1ccc2c(ccn2Cc2ccc(-c3ccc(O)cc3)cc2)c1)c1ccc([N+](=O)[O-])cc1 [Example 47, (S)-1-((4′-Hydroxy-[1,1′-biphenyl]-4-yl)methyl)-N-(1-(4-nitrophenyl)ethyl)-1H-indole-5-carboxamide] | 300 nM | – | (0%) | – | – | – | –
Cc1c(C)n(Cc2ccc(-c3ccccc3C(=O)O)cc2)c2ccc(C(=O)NCCN3CCOCC3)cc12 [Example 85, 4′-((2,3-dimethyl-5-(2-morpholinoethylcarbamoyl)-1H-indol-1-yl)methyl)biphenyl-2-carboxylic acid] | > 1000 nM | – | (0%) | – | – | – | –
Cc1c(C)n(Cc2ccc(-c3ccccc3C(=O)O)cc2)c2ccc(C(=O)NCc3ccccc3Cl)cc12 [Example 108, 4′-((5-(2-chlorobenzylcarbamoyl)-2,3-dimethyl-1H-indol-1-yl)methyl)biphenyl-2-carboxylic acid] | 6 nM | 535 nM | (15%) | – | – | – | –
Cc1c(C)n(Cc2ccc(-c3ccccc3C(=O)O)cc2)c2ccc(C(=O)NCc3ccc(S(C)(=O)=O)cc3)cc12 [compound 10, 4′-((2,3-Dimethyl-5-(4-(methylsulfonyl)benzylcarbamoyl)-1H-indol-1-yl)methyl)biphenyl-2-carboxylic acid] | 553 nM | – | (0%) | – | – | – | –
CCC(NC(=O)c1ccc2c(ccn2Cc2ccccc2-c2cccc(C(=O)O)c2)c1)c1ccccc1 (centres unmarked) [Example 69, 2′-((5-((1-Phenylpropyl)carbamoyl)-1H-indol-1-yl)methyl)-[1,1′-biphenyl]-3-carboxylic acid] | 4 nM | – | (0%) | – | – | – | –
Cc1ccc(CNC(=O)c2ccc3c(c2)c(C)c(C)n3Cc2ccc(-c3ccccc3C(=O)O)cc2)o1 [Example 84, 4′-((2,3-dimethyl-5-((5-methylfuran-2-yl)methylcarbamoyl)-1H-indol-1-yl)methyl)biphenyl-2-carboxylic acid] | 12 nM | 40 nM | (17%) | – | – | – | –
Cc1c(C)n(Cc2ccc(-c3ccccc3C(=O)O)cc2)c2ccc(C(=O)NCc3ccc(C(C)C)cc3)cc12 [compound 9, 4′-((5-(4-Isopropylbenzylcarbamoyl)-2,3-dimethyl-1H-indol-1-yl)methyl)biphenyl-2-carboxylic acid] | 23 nM | 7 nM | (18%) | – | – | – | –
Cc1c(C)n(Cc2ccc(-c3ccccc3C(=O)O)cc2)c2ccc(C(=O)NCc3ccc(OC(F)(F)F)cc3)cc12 [compound 15, 4′-((2,3-Dimethyl-5-(4-(trifluoromethoxy)benzylcarbamoyl)-1H-indol-1-yl)methyl)biphenyl-2-carboxylic acid] | – | 83 nM | (20%) | – | – | – | –
CC[C@H](NC(=O)c1ccc2c(ccn2Cc2ccccc2-c2cccc(C(=O)O)c2)c1)c1ccccc1 [Example 191, (S)-2′-((5-((1-phenylpropyl)carbamoyl)-1H-indol-1-yl)methyl)-[1,1′-biphenyl]-3-carboxylic acid] | 80 nM | – | – | – | 1000 nM | 20% | –
CC[C@@H](NC(=O)c1ccc2c(ccn2Cc2ccccc2-c2cccc(C(=O)O)c2)c1)c1ccccc1 [Example 192, (R)-2′-((5-((1-phenylpropyl)carbamoyl)-1H-indol-1-yl)methyl)-[1,1′-biphenyl]-3-carboxylic acid] | 4 nM | – | – | – | 27 nM | 40% | –
Cc1c(C)n(Cc2ccc(-c3ccccc3-c3nn[nH]n3)cc2)c2ccc(C(=O)N[C@@H](C)c3cccc(C(C)C)c3)cc12 [Example 243, (S)-1-((2′-(2H-tetrazol-5-yl)-[1,1′-biphenyl]-4-yl)methyl)-N-(1-(3-isopropylphenyl)ethyl)-2,3-dimethyl-1H-indole-5-carboxamide] | 22 nM | – | – | – | – | 10% | 1600 nM

Source: patent US8957093B2, “N-biphenylmethylindole modulators of PPARG” (The Scripps Research Institute, priority 2011, dated 2015)
